In the supplement of paper PMC10307832:

What was measured:
Assay in all cases: relative viability (nuclei count vs DMSO), 5 days (fraction); higher = more cells survive
Seliciclib + Luminespib = compound: CC[C@H](CO)Nc1nc(NCc2ccccc2)c2ncn(C(C)C)c2n1 [Seliciclib] + CCNC(=O)c1noc(-c2cc(C(C)C)c(O)cc2O)c1-c1ccc(CN2CCOCC2)cc1 [Luminespib] (partner 0.01 µM)
How it was run: (§1)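 Dosing by pin tool came one day after lung cancer cell lines were seeded in 1536-well plates, using either one drug or a fixed anchor-drug dose plus five library-drug doses (not always all listed) in √10 steps. After 5 days, nuclei were counted on 4× images. Relative viability is treated-well nuclei count divided by vehicle-well nuclei count, and values are medians of duplicate plates.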

Seliciclib + Tozasertib = compound: CC[C@H](CO)Nc1nc(NCc2ccccc2)c2ncn(C(C)C)c2n1 [Seliciclib] + Cc1cc(Nc2cc(N3CCN(C)CC3)nc(Sc3ccc(NC(=O)C4CC4)cc3)n2)n[nH]1 [Tozasertib] (partner 0.1 µM)
How it was run: as §1

Seliciclib + Alpelisib = compound: CC[C@H](CO)Nc1nc(NCc2ccccc2)c2ncn(C(C)C)c2n1 [Seliciclib] + Cc1nc(NC(=O)N2CCC[C@H]2C(N)=O)sc1-c1ccnc(C(C)(C)C(F)(F)F)c1 [Alpelisib] (partner 2 µM)
How it was run: as §1

Seliciclib + Dasatinib = compound: CC[C@H](CO)Nc1nc(NCc2ccccc2)c2ncn(C(C)C)c2n1 [Seliciclib] + Cc1nc(Nc2ncc(C(=O)Nc3c(C)cccc3Cl)s2)cc(N2CCN(CCO)CC2)n1 [Dasatinib] (partner 0.075 µM)
How it was run: as §1

Cell Line | relative viability (Seliciclib + Luminespib; first compound 0.08 µM) | relative viability (Seliciclib + Luminespib; first compound 0.253 µM) | relative viability (Seliciclib + Luminespib; first compound 0.8 µM) | relative viability (Seliciclib + Luminespib; first compound 2.53 µM) | relative viability (Seliciclib + Luminespib; first compound 8 µM) | relative viability (Seliciclib + Tozasertib; first compound 0.08 µM) | relative viability (Seliciclib + Tozasertib; first compound 0.253 µM) | relative viability (Seliciclib + Tozasertib; first compound 0.8 µM) | relative viability (Seliciclib + Tozasertib; first compound 2.53 µM) | relative viability (Seliciclib + Tozasertib; first compound 8 µM) | relative viability (Seliciclib + Alpelisib; first compound 0.08 µM) | relative viability (Seliciclib + Alpelisib; first compound 0.253 µM) | relative viability (Seliciclib + Alpelisib; first compound 0.8 µM) | relative viability (Seliciclib + Alpelisib; first compound 2.53 µM) | relative viability (Seliciclib + Alpelisib; first compound 8 µM) | relative viability (Seliciclib + Dasatinib; first compound 0.08 µM) | relative viability (Seliciclib + Dasatinib; first compound 0.253 µM) | relative viability (Seliciclib + Dasatinib; first compound 0.8 µM) | relative viability (Seliciclib + Dasatinib; first compound 2.53 µM) | relative viability (Seliciclib + Dasatinib; first compound 8 µM)
NCI-H441 | 0.319 | 0.296 | 0.341 | 0.299 | 0.299 | 0.729 | 0.598 | 0.704 | 0.513 | 0.406 | 0.631 | 0.584 | 0.776 | 0.754 | 0.51 | 0.732 | 0.848 | 0.536 | 0.339 | 0.601
NCI-H460 | 0.0402 | 0.0324 | 0.0419 | 0.0357 | 0.0269 | 0.525 | 0.561 | 0.502 | 0.465 | 0.363 | 0.426 | 0.485 | 0.381 | 0.538 | 0.385 | 0.524 | 0.391 | 0.357 | 0.288 | 0.363
NCI-H520 | 0.234 | – | 0.175 | 0.315 | 0.205 | 0.47 | – | 0.406 | 0.459 | 0.573 | 0.897 | 0.682 | 0.831 | 1.02 | 0.931 | 0.167 | – | 0.258 | 0.219 | 0.178
NCI-H596 | 0.802 | – | 1 | 0.84 | 0.745 | 0.862 | – | 0.849 | 1.03 | 0.865 | 0.522 | 0.428 | 0.498 | 0.506 | 0.468 | 0.658 | – | 0.594 | 0.606 | 0.515
NCI-H647 | 0.111 | 0.206 | 0.127 | 0.128 | 0.163 | 0.278 | – | 0.262 | 0.348 | 0.303 | 0.952 | 1.1 | 0.978 | 1.15 | 0.618 | 0.225 | – | 0.209 | 0.166 | 0.189
NCI-H650 | 0.807 | 0.757 | 0.921 | 0.727 | 0.709 | 0.693 | 0.782 | 0.704 | 0.464 | 0.584 | 1.05 | 1.02 | 1.35 | – | 0.872 | 0.447 | 0.387 | 0.596 | 0.262 | 0.39
NCI-H661 | 0.9 | 1.07 | 0.853 | 0.809 | 0.756 | 0.338 | 0.362 | 0.373 | 0.359 | 0.355 | 0.736 | 0.781 | 0.653 | 0.437 | 0.5 | 0.832 | 1.03 | 0.9 | 0.739 | 0.547
NCI-H727 | 0.338 | 0.447 | 0.372 | 0.321 | 0.271 | 0.616 | 0.89 | 0.528 | 0.557 | 0.487 | 0.571 | 0.696 | 0.49 | 0.526 | 0.538 | 0.481 | 0.504 | 0.342 | 0.307 | 0.336
NCI-H838 | 0.356 | 0.27 | 0.332 | 0.28 | 0.344 | 0.252 | 0.257 | 0.304 | 0.25 | 0.253 | 0.971 | 0.853 | 0.884 | 1.14 | 0.94 | 0.341 | 0.198 | 0.26 | 0.218 | 0.303
NCI-H1355 | 0.722 | 0.638 | 0.643 | 0.713 | 0.684 | 0.586 | 0.517 | 0.513 | 0.506 | 0.388 | 0.784 | 0.754 | 0.822 | 0.919 | 0.831 | 0.755 | 0.585 | 0.683 | 0.544 | 0.686
NCI-H1395 | 0.709 | 0.722 | 0.726 | 0.588 | 0.669 | 0.738 | 0.718 | 0.719 | 0.718 | 0.69 | 1.08 | 0.843 | 1.04 | 1.07 | 1.02 | 0.464 | 0.406 | 0.428 | 0.361 | 0.368
NCI-H1437 | 0.999 | 1.2 | 1.05 | 1.05 | 0.809 | 0.425 | 0.431 | 0.405 | 0.4 | 0.352 | 0.919 | 0.855 | 1.02 | 1.02 | 0.935 | 0.465 | 0.438 | 0.323 | 0.233 | 0.335
NCI-H1651 | 0.864 | 0.958 | 0.876 | 0.594 | 0.564 | 0.664 | 0.623 | 0.652 | 0.778 | 0.542 | 0.93 | 0.839 | 0.833 | 0.81 | 0.804 | 0.403 | 0.399 | 0.536 | 0.302 | 0.382
NCI-H1666 | 1.01 | 1.08 | 1.04 | 0.968 | 0.778 | 0.684 | 0.696 | 0.623 | 0.561 | 0.428 | 1.04 | 0.985 | 0.846 | 0.923 | 0.516 | 0.732 | 0.888 | 0.875 | 0.605 | 0.551
NCI-H1734 | 0.186 | 0.199 | 0.181 | 0.159 | 0.222 | 0.269 | 0.245 | 0.277 | 0.247 | 0.257 | 0.659 | 0.651 | 0.622 | 0.683 | 0.674 | 0.488 | 0.426 | 0.493 | 0.295 | 0.335
NCI-H1755 | 0.573 | 0.565 | 0.444 | 0.406 | 0.407 | 0.617 | 0.605 | 0.62 | 0.502 | 0.534 | 0.924 | 0.946 | 0.908 | 0.991 | 0.892 | 0.423 | 0.404 | 0.429 | 0.26 | 0.404
NCI-H1793 | 0.216 | 0.158 | 0.147 | 0.307 | 0.14 | 0.329 | 0.337 | 0.333 | 0.501 | 0.234 | 0.641 | 0.68 | 0.508 | 0.708 | 0.742 | 0.33 | 0.323 | 0.414 | 0.37 | 0.482
